Assay results as given in the supplement of paper PMC10307832.

Key:
Assay in all cases: relative viability (nuclei count vs DMSO), 5 days (fraction); higher = more cells survive
Motesanib + Decitabine = compound: CC1(C)CNc2cc(NC(=O)c3cccnc3NCc3ccncc3)ccc21 [Motesanib] + Nc1ncn([C@H]2C[C@H](O)[C@@H](CO)O2)c(=O)n1 [Decitabine] (partner 2 µM)
Outline: (§1)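 After 5 days of treatment, lung cancer cells in 1536-well plates were fixed and stained in a single step (final 0.05% Triton X-100, 1% formaldehyde, 1 ug/ml Hoechst) and their nuclei counted on 4× images. Treatment had been applied by pin tool the day after seeding as one drug alone or as a fixed anchor-drug dose with five library-drug doses (not always all listed) in √10 steps. Relative viability is the nuclei count of treated wells divided by that of vehicle wells, and values are medians of duplicate plates.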

Motesanib + Phenformin = compound: CC1(C)CNc2cc(NC(=O)c3cccnc3NCc3ccncc3)ccc21 [Motesanib] + N=C(N)NC(=N)NCCc1ccccc1 [Phenformin] (partner 250 µM)
Outline: as §1

Motesanib + Trametinib = compound: CC1(C)CNc2cc(NC(=O)c3cccnc3NCc3ccncc3)ccc21 [Motesanib] + CC(=O)Nc1cccc(-n2c(=O)n(C3CC3)c(=O)c3c(Nc4ccc(I)cc4F)n(C)c(=O)c(C)c32)c1 [Trametinib] (partner 0.02 µM)
Outline: as §1

[1] = compound: C[C@@]1(C(=O)Nc2ccc(F)nc2)CCCN1c1nc(Nc2cc(C3CC3)n[nH]2)c2cccn2n1 + CC1(C)CCC(c2ccc(Cl)cc2)=C(CN2CCN(c3ccc(C(=O)NS(=O)(=O)c4ccc(N[C@H](CCN5CCOCC5)CSc5ccccc5)c(S(=O)(=O)C(F)(F)F)c4)cc3)CC2)C1 [Navitoclax] (partner 0.5 µM)
Outline: as §1

For NCI-H2170, the relative viability (Motesanib + Decitabine; first compound 0.01 µM) was 0.485, the relative viability (Motesanib + Decitabine; first compound 0.03162 µM) was 0.509 and the relative viability (Motesanib + Decitabine; first compound 0.1 µM) was 0.575. The relative viability (Motesanib + Decitabine; first compound 0.3162 µM) was 0.576, the relative viability (Motesanib + Decitabine; first compound 1 µM) was 0.604 and the relative viability (Motesanib + Phenformin; first compound 0.01 µM) was 0.469. The relative viability (Motesanib + Phenformin; first compound 0.03162 µM) was 0.359, the relative viability (Motesanib + Phenformin; first compound 0.1 µM) was 0.447 and the relative viability (Motesanib + Phenformin; first compound 0.3162 µM) was 0.489. For the same cell line, the relative viability (Motesanib + Phenformin; first compound 1 µM) was 0.409, the relative viability (Motesanib + Trametinib; first compound 0.01 µM) was 0.861 and the relative viability (Motesanib + Trametinib; first compound 0.03162 µM) was 0.872. It also gave a relative viability (Motesanib + Trametinib; first compound 0.1 µM) of 0.91, a relative viability (Motesanib + Trametinib; first compound 0.3162 µM) of 0.909 and a relative viability (Motesanib + Trametinib; first compound 1 µM) of 0.979. For the same cell line, the relative viability ([1]; first compound 0.04 µM) was 0.514, the relative viability ([1]; first compound 0.1265 µM) was 0.652 and the relative viability ([1]; first compound 0.4 µM) was 0.518. For the same cell line, the relative viability ([1]; first compound 1.265 µM) was 0.652.
NCI-H1299 showed a relative viability ([1]; first compound 0.04 µM) of 1.08, a relative viability ([1]; first compound 0.1265 µM) of 0.976 and a relative viability ([1]; first compound 0.4 µM) of 1.04. It also gave a relative viability ([1]; first compound 1.265 µM) of 1.02.
Work on EBC-1 yielded a relative viability ([1]; first compound 0.04 µM) of 0.342, a relative viability ([1]; first compound 0.1265 µM) of 0.315 and a relative viability ([1]; first compound 0.4 µM) of 0.315. The relative viability ([1]; first compound 1.265 µM) was 0.197.
NCI-H1648 was tested, and the relative viability (Motesanib + Decitabine; first compound 0.01 µM) was 0.498, the relative viability (Motesanib + Decitabine; first compound 0.3162 µM) was 0.531 and the relative viability (Motesanib + Decitabine; first compound 1 µM) was 0.42. For the same cell line, the relative viability (Motesanib + Trametinib; first compound 0.01 µM) was 0.433, the relative viability (Motesanib + Trametinib; first compound 0.3162 µM) was 0.566 and the relative viability (Motesanib + Trametinib; first compound 1 µM) was 0.471.
NCI-H650 gave a relative viability (Motesanib + Decitabine; first compound 0.01 µM) of 0.31, a relative viability (Motesanib + Decitabine; first compound 0.03162 µM) of 0.319 and a relative viability (Motesanib + Decitabine; first compound 0.1 µM) of 0.312. The relative viability (Motesanib + Decitabine; first compound 0.3162 µM) was 0.382, the relative viability (Motesanib + Decitabine; first compound 1 µM) was 0.529 and the relative viability (Motesanib + Phenformin; first compound 0.01 µM) was 0.457. For the same cell line, the relative viability (Motesanib + Phenformin; first compound 0.1 µM) was 0.492, the relative viability (Motesanib + Phenformin; first compound 0.3162 µM) was 0.544 and the relative viability (Motesanib + Phenformin; first compound 1 µM) was 0.434. The relative viability (Motesanib + Trametinib; first compound 0.01 µM) was 0.916, the relative viability (Motesanib + Trametinib; first compound 0.03162 µM) was 1.07 and the relative viability (Motesanib + Trametinib; first compound 0.1 µM) was 0.946. The relative viability (Motesanib + Trametinib; first compound 0.3162 µM) was 1.02 and the relative viability (Motesanib + Trametinib; first compound 1 µM) was 1.06.
Work on A549 yielded a relative viability (Motesanib + Decitabine; first compound 0.01 µM) of 0.261, a relative viability (Motesanib + Decitabine; first compound 0.03162 µM) of 0.216 and a relative viability (Motesanib + Decitabine; first compound 0.1 µM) of 0.327. It also gave a relative viability (Motesanib + Decitabine; first compound 0.3162 µM) of 0.278, a relative viability (Motesanib + Decitabine; first compound 1 µM) of 0.338 and a relative viability (Motesanib + Phenformin; first compound 0.01 µM) of 0.0998. The relative viability (Motesanib + Phenformin; first compound 0.03162 µM) was 0.109, the relative viability (Motesanib + Phenformin; first compound 0.1 µM) was 0.165 and the relative viability (Motesanib + Phenformin; first compound 0.3162 µM) was 0.178. For the same cell line, the relative viability (Motesanib + Phenformin; first compound 1 µM) was 0.247, the relative viability ([1]; first compound 0.04 µM) was 0.95 and the relative viability ([1]; first compound 0.1265 µM) was 0.902. For the same cell line, the relative viability ([1]; first compound 0.4 µM) was 0.742 and the relative viability ([1]; first compound 1.265 µM) was 0.688.
NCI-H358 gave a relative viability (Motesanib + Decitabine; first compound 0.01 µM) of 0.197, a relative viability (Motesanib + Decitabine; first compound 0.03162 µM) of 0.261 and a relative viability (Motesanib + Decitabine; first compound 0.1 µM) of 0.257. The relative viability (Motesanib + Decitabine; first compound 0.3162 µM) was 0.314, the relative viability (Motesanib + Decitabine; first compound 1 µM) was 0.276 and the relative viability (Motesanib + Phenformin; first compound 0.01 µM) was 0.384. The relative viability (Motesanib + Phenformin; first compound 0.03162 µM) was 0.414, the relative viability (Motesanib + Phenformin; first compound 0.1 µM) was 0.331 and the relative viability (Motesanib + Phenformin; first compound 0.3162 µM) was 0.418. The relative viability (Motesanib + Phenformin; first compound 1 µM) was 0.468, the relative viability (Motesanib + Trametinib; first compound 0.01 µM) was 0.13 and the relative viability (Motesanib + Trametinib; first compound 0.03162 µM) was 0.137. It also gave a relative viability (Motesanib + Trametinib; first compound 0.1 µM) of 0.129, a relative viability (Motesanib + Trametinib; first compound 0.3162 µM) of 0.163 and a relative viability (Motesanib + Trametinib; first compound 1 µM) of 0.138.
For NCI-H1563, the relative viability (Motesanib + Phenformin; first compound 0.01 µM) was 0.617, the relative viability (Motesanib + Phenformin; first compound 0.03162 µM) was 0.598 and the relative viability (Motesanib + Phenformin; first compound 0.1 µM) was 0.697. It also gave a relative viability (Motesanib + Phenformin; first compound 0.3162 µM) of 0.715 and a relative viability (Motesanib + Phenformin; first compound 1 µM) of 0.655.
With NCI-H522 the relative viability (Motesanib + Decitabine; first compound 0.01 µM) was 0.615, the relative viability (Motesanib + Decitabine; first compound 0.03162 µM) was 0.675 and the relative viability (Motesanib + Decitabine; first compound 0.1 µM) was 0.639. The relative viability (Motesanib + Decitabine; first compound 0.3162 µM) was 0.725, the relative viability (Motesanib + Decitabine; first compound 1 µM) was 0.691 and the relative viability (Motesanib + Phenformin; first compound 0.01 µM) was 0.644. It also gave a relative viability (Motesanib + Phenformin; first compound 0.03162 µM) of 0.634, a relative viability (Motesanib + Phenformin; first compound 0.1 µM) of 0.581 and a relative viability (Motesanib + Phenformin; first compound 0.3162 µM) of 0.582. It also gave a relative viability (Motesanib + Phenformin; first compound 1 µM) of 0.667, a relative viability (Motesanib + Trametinib; first compound 0.01 µM) of 0.815 and a relative viability (Motesanib + Trametinib; first compound 0.03162 µM) of 0.848. The relative viability (Motesanib + Trametinib; first compound 0.1 µM) was 0.823, the relative viability (Motesanib + Trametinib; first compound 0.3162 µM) was 0.831 and the relative viability (Motesanib + Trametinib; first compound 1 µM) was 0.84.
For IA-LM, the relative viability ([1]; first compound 0.04 µM) was 0.983, the relative viability ([1]; first compound 0.1265 µM) was 0.904 and the relative viability ([1]; first compound 0.4 µM) was 0.746. It also gave a relative viability ([1]; first compound 1.265 µM) of 0.593.
In the case of NCI-H1703, the relative viability ([1]; first compound 0.04 µM) is reported as 1.25, the relative viability ([1]; first compound 0.1265 µM) is reported as 1.02 and the relative viability ([1]; first compound 0.4 µM) is reported as 0.783. For the same cell line, the relative viability ([1]; first compound 1.265 µM) was 0.743.
In the case of LCLC-103H, the relative viability (Motesanib + Decitabine; first compound 0.01 µM) is reported as 0.774, the relative viability (Motesanib + Decitabine; first compound 0.03162 µM) is reported as 0.729 and the relative viability (Motesanib + Decitabine; first compound 0.1 µM) is reported as 0.833. The relative viability (Motesanib + Decitabine; first compound 0.3162 µM) was 0.815, the relative viability (Motesanib + Decitabine; first compound 1 µM) was 0.759 and the relative viability (Motesanib + Phenformin; first compound 0.01 µM) was 0.338. It also gave a relative viability (Motesanib + Phenformin; first compound 0.03162 µM) of 0.298, a relative viability (Motesanib + Phenformin; first compound 0.1 µM) of 0.294 and a relative viability (Motesanib + Phenformin; first compound 0.3162 µM) of 0.369. It also gave a relative viability (Motesanib + Phenformin; first compound 1 µM) of 0.37, a relative viability (Motesanib + Trametinib; first compound 0.01 µM) of 0.674 and a relative viability (Motesanib + Trametinib; first compound 0.03162 µM) of 0.707. The relative viability (Motesanib + Trametinib; first compound 0.1 µM) was 0.659, the relative viability (Motesanib + Trametinib; first compound 0.3162 µM) was 0.744 and the relative viability (Motesanib + Trametinib; first compound 1 µM) was 0.682.
In the case of SW 900, the relative viability (Motesanib + Decitabine; first compound 0.01 µM) is reported as 0.58, the relative viability (Motesanib + Decitabine; first compound 0.03162 µM) is reported as 0.475 and the relative viability (Motesanib + Decitabine; first compound 0.1 µM) is reported as 0.632. The relative viability (Motesanib + Decitabine; first compound 0.3162 µM) was 0.677, the relative viability (Motesanib + Decitabine; first compound 1 µM) was 0.749 and the relative viability (Motesanib + Phenformin; first compound 0.01 µM) was 0.58. For the same cell line, the relative viability (Motesanib + Phenformin; first compound 0.03162 µM) was 0.599, the relative viability (Motesanib + Phenformin; first compound 0.1 µM) was 0.552 and the relative viability (Motesanib + Phenformin; first compound 0.3162 µM) was 0.621. The relative viability (Motesanib + Phenformin; first compound 1 µM) was 0.739, the relative viability (Motesanib + Trametinib; first compound 0.01 µM) was 0.855 and the relative viability (Motesanib + Trametinib; first compound 0.03162 µM) was 0.764. The relative viability (Motesanib + Trametinib; first compound 0.1 µM) was 0.938, the relative viability (Motesanib + Trametinib; first compound 0.3162 µM) was 0.683 and the relative viability (Motesanib + Trametinib; first compound 1 µM) was 0.848.
